# Patent US20250134870A1, “PATHWAY MODULATOR, PHARMACEUTICAL COMPOSITION HAVING SAME, USE THEREOF, AND THERAPEUTIC METHOD USING SAME” (Jiangsu Yahong Meditech Co., Ltd., priority 2021, published 2025)
# Columns and labels:
# [1] = system: IRBP R16-induced experimental autoimmune uveoretinitis (EAU); experiment: Bovine IRBP R16-induced experimental autoimmune uveoretinitis (EAU): clinical score, AUC, incidence (Example 6); type: in vivo, Lewis rats; settings: for Incidence rate (%): 0.4 mg/kg PO QD
# Procedure: On Day-1 (i.e., the day before immunization, hereinafter), 60 rats were randomly divided into 6 groups (n=10) based on body weight (see Table 18). On Day 0, rats in Groups 2 to 6 were anesthetized with isoflurane, followed by subcutaneous injection of a total of […] of emulsion resulting from IRBP R16 and CFA emulsified at a 1:1 v/v ratio, on both thighs (50 μL at each site) and tail head (100 μL), respectively.
# From Day 0 after immunization, the eyes of rats were checked daily with a flashlight by gently opening the upper and lower eyelids of the test rats, and the incidence of disease was recorded. Clinical symptoms were scored in a blind manner from the onset of disease to the end of the study according to the criteria listed in Table 17.
# (§1) Dosing started from Day 0 accurately according to the animal body weight for a total of 16 days.
# The results were expressed as “mean±standard error”. Graphpad Prism or SPSS was used for statistical analysis, and p<0.05 was considered statistically significant.
# [2] = Body weight and weight change rate of EAU rats (Example 6); type: in vivo, Lewis rats; settings: 0.4 mg/kg PO QD
# Text: Wherein, Day 0 referred to the day of immunization. The body weight of each rat was monitored twice a week after immunization.
# as §1
# [3] = system: imiquimod (IMQ)-induced psoriasis; experiment: Imiquimod (IMQ)-induced psoriasis in mice: erythema, scales, thickness, total score, AUC (Example 8); type: in vivo, Balb/c mice; design: key to erythema score / scales score / thickness score: 0 = none, 1 = mild, 2 = moderate, 3 = obvious/severe; key to total score of erythema + scales + thickness: sum of three 0-3 scores (erythema + scales + thickening), 0-9; settings: for erythema score / scales score: 2 mg/kg topical QD; for thickness score / total score of erythema + scales + thickness: positive control group
# Procedure: All mice were shaved with a pet shaver to get an area of 2×3 cm on the back one day before the start of the experiment.
# 65 animals were randomly divided into groups according to body weight, and the dosing regimen was as follows.
# Imiquimod (IMQ) cream: 62.5 mg of IMQ cream for each mouse in G2 to G7; Dexamethasone (DEX) ointment: 70 mg of ointment for each mouse in G4;
# Tofacitinib: Tofacitinib was dissolved in dimethyl sulfoxide to 5 mg/mL, and 50 μL was added to IMQ cream for daily treatment.
# Mice in Groups 2 to 7 received daily topical doses of 62.5 mg of IMQ cream on their shaved back from Day 0 to Day 7.
# Dosing of the test compounds and reference substance was carried out according to Table 29 for 7 consecutive days.
# To assess the severity of inflammation of skin on the back, the skin on the back was scored according to Table 30. Erythema, scales and thickening were scored independently on a scale of 0 to 3, 0, none; 1. mild; 2. moderate; 3. obvious/severe.
# The inhibition rate was calculated according to the following formula: Inhibition rate=[AUC (solvent)−AUC (treatment)]/AUC (solvent)×100%. Wherein, solvent referred to the solvent group corresponding to the route of administration.
# [4] = Body weight and spleen weight in IMQ-induced psoriasis mice (Example 8); type: in vivo, Balb/c mice; settings: 2 mg/kg topical QD × 7 days (G4)
# Text: 4) Spleen samples were collected and weighed (FIG. 23).
# Body weight was monitored daily throughout the study. Continuous use of IMQ cream could reduce the mean body weight of the solvent group. […] However, there was no statistically significant difference between the treatment and solvent groups (FIG. 21)
# [5] = system: bleomycin-induced skin fibrosis; experiment: Bleomycin-induced skin fibrosis in mice: body weight, spleen weight, spleen/body weight ratio (Example 5); type: in vivo, male C57BL/6 mice; settings: 50 mg/kg IP QD, 28 days
# Procedure: Isoflurane (2.0 to 2.5%) was used to anesthetize the animals. The fur of the back was removed, and a 1 cm^2 area was selected for intradermal injection of bleomycin (0.3 mg/kg, 100 μL) every two days to establish a skin fibrosis model.
# Dosing started on the day of model establishment. Each animal was weighed for the animal body weight before dosing to calculate the volume of administration, wherein the period of administration was 28 days. […] Frequency of administration: twice a day for Nintedanib group and once a day for other groups.
# The change in animal body weight was recorded twice a week from the date of model establishment. The clinical manifestations of animals, such as shortness and difficulty of breath, abdominal suction, decreased activity and malaise, were closely observed.
# Animals were weighed at the experimental endpoints and the body weight was recorded to calculate the volume of administration. 6 h after dosing, firstly, whole blood was collected from the orbital venous plexus of mice and subjected to blood routine test using an automated Hematology analyzer (Sysmex XS-800i). […]
# Then the animals were euthanized by intraperitoneal injection of pentobarbital sodium. The material and order of dissection were as follows: Spleen was collected and weighed and the weight was recorded. […]
# The mean±SEM was calculated using Graphpad prism 6.0 software. […]
# [6] = system: bleomycin-induced skin fibrosis; experiment: Bleomycin-induced skin fibrosis in mice: skin histopathology (dermal thickness, capillary density score, inflammatory cell infiltration score); type: in vivo, male C57BL/6 mice; settings: 50 mg/kg IP QD, 28 days
# Procedure: The skin tissue of the lesioned skin was subjected to dehydration, embedding and sectioning according to the pathology SOP, and the tissue was stained by HE and Masson staining. Histopathological analysis was performed according to the following methods:
# Masson-stained sections were panoramically scanned by using Nanozomer S210 and the scanned images were subjected to quantitative analysis using Visiopharm VIS6.0 software. The degree of fibrosis was currently represented by the dermal thickness after Masson staining.
# The fields of observation was selected in the dermis layer of the lesioned area (the number of fields selected was determined according to the size of the lesioned area) and scored according to the area occupied by capillaries in the area: • 0: No capillary formed • 1: The proportion of capillaries formed was less than 25%; • 2: The proportion of capillaries formed was 25-50%; • 3: The proportion of capillaries formed was 50-75%; • 4: The proportion of capillaries formed was greater than 75%. 3.8.3 Inflammatory cell infiltration score of dermis layer
# The fields of observation was selected in the dermis layer of the lesioned area (the number of fields selected was determined according to the size of the lesioned area) and scored according to the degree of inflammatory cell infiltration: • 0: No inflammatory cell infiltration: • 1: A small amount of focal inflammatory cell infiltration; • 2: Scattered diffuse inflammatory cell infiltration: • 3: A large amount of diffuse inflammatory cell infiltration; • 4: A large amount of agglomerated inflammatory cell infiltration.
compound,measurement,setting,value
C[C@@H]1C[C@H]2[C@@H]3CCC4=CC(=O)C=C[C@]4(C)[C@@]3(F)[C@@H](O)C[C@]2(C)[C@@]1(O)C(=O)CO [Dexamethasone],Area under the curve (AUC) of clinical score,[1]; 0.4 mg/kg PO QD × 16 days,7.68
same,Incidence rate (%),[1]; Day 0,0%
same,Incidence rate (%),[1]; Day 1,0%
same,Incidence rate (%),[1]; Day 2,0%
same,Incidence rate (%),[1]; Day 3,0%
same,Incidence rate (%),[1]; Day 4,0%
same,Incidence rate (%),[1]; Day 5,0%
same,Incidence rate (%),[1]; Day 6,0%
same,Incidence rate (%),[1]; Day 7,10%
same,Incidence rate (%),[1]; Day 8,20%
same,Incidence rate (%),[1]; Day 9,100%
same,Incidence rate (%),[1]; Day 10,100%
same,Incidence rate (%),[1]; Day 11,90%
same,Incidence rate (%),[1]; Day 12,90%
same,Incidence rate (%),[1]; Day 13,90%
same,Incidence rate (%),[1]; Day 14,90%
same,Incidence rate (%),[1]; Day 15,90%
same,Incidence rate (%),[1]; Day 16,90%
same,Incidence rate (%),[1]; Day −1,0%
same,inhibition at 0.4 mg/kg,"[1]; Rattus norvegicus, 384 h, 0.4 mg/kg PO QD × 16 days, vs model control, read-out: Inhibition rate of clinical score AUC",84.5%
same,Rat body weight,[2]; Day 2,174.65 g
same,Weight change rate (%),[2]; Day 2,−7.26%
same,Rat body weight,[2]; Day 6,166.65 g
same,Weight change rate (%),[2]; Day 6,−11.53%
same,Rat body weight,[2]; Day 9,164.05 g
same,Weight change rate (%),[2]; Day 9,−12.92%
same,Rat body weight,[2]; Day 13,162.10 g
same,Weight change rate (%),[2]; Day 13,−13.99%
same,Rat body weight,[2]; Day 16,161.29 g
same,Weight change rate (%),[2]; Day 16,−14.44%
same,Rat body weight,[2]; Day −1,188.46 g
same,Weight change rate (%),[2]; Day −1,0.00%
same,erythema score,[3]; Day 0,0
same,scales score,[3]; Day 0,0
same,thickness score,[3]; Day 0,0
same,total score of erythema + scales + thickness,[3]; Day 0,0
same,erythema score,[3]; Day 1,0
same,scales score,[3]; Day 1,0
same,thickness score,[3]; Day 1,0
same,total score of erythema + scales + thickness,[3]; Day 1,0
same,erythema score,[3]; Day 2,0
same,scales score,[3]; Day 2,0
same,thickness score,[3]; Day 2,0
same,total score of erythema + scales + thickness,[3]; Day 2,0
same,erythema score,[3]; Day 3,0.2
same,scales score,[3]; Day 3,0
same,thickness score,[3]; Day 3,0
same,total score of erythema + scales + thickness,[3]; Day 3,0
same,erythema score,[3]; Day 4,0.1
same,scales score,[3]; Day 4,0.2
same,thickness score,[3]; Day 4,0
same,total score of erythema + scales + thickness,[3]; Day 4,0.3
same,erythema score,[3]; Day 5,0.1
same,scales score,[3]; Day 5,0.2
same,thickness score,[3]; Day 5,0
same,total score of erythema + scales + thickness,[3]; Day 5,0.3
same,erythema score,[3]; Day 6,0
same,scales score,[3]; Day 6,0.2
same,thickness score,[3]; Day 6,0
same,total score of erythema + scales + thickness,[3]; Day 6,0.2
same,erythema score,[3]; Day 7,0
same,scales score,[3]; Day 7,0.1
same,thickness score,[3]; Day 7,0
same,total score of erythema + scales + thickness,[3]; Day 7,0.1
same,inhibition at 2 mg/kg,"[3]; Mus musculus, 168 h, 2 mg/kg topical QD × 7 days, vs corresponding solvent group, read-out: inhibition rate (AUC of total clinical score)",97%
same,body weight (weight loss),[4],weight loss was more dramatic
Cc1ccc(NC(=O)c2ccc(CN3CCN(C)CC3)cc2)cc1Nc1nccc(-c2cccnc2)n1 [Imatinib],death of animals,[5],One animal in Imatinib group died on Day 28
same,inflammatory cell infiltration of the lesioned skin,[6],visibly reduce
same,subdermal capillary hyperplasia,[6],visibly reduce
